{"source": "patent US6544989B2", "about": "“Benzazoles: benzoxazole, benzthiazole and benzimidazole derivatives” (Syngenta Limited, priority 1998, dated 2003)", "note": "Marks after values point to notes of the source that are not given here.", "data": [{"tested_on": "Plasmopara viticola", "assay": "Fungicidal test, Plasmopara viticola (PLASVI) on vines, PRCO", "format": "in vivo", "conditions": "METHOD 1 (values marked *)", "values": [{"smiles": "Cc1nsc(NC(=O)Cc2ccc3oc(-c4ccccc4)nc3c2)c1Cl", "note": "[248(A3)]", "PLASVI 1 d Prot/Foir PRCO": "97*"}, {"smiles": "Cc1nsc(NC(=O)Cc2ccc3oc(-c4ccc(Cl)cc4Cl)nc3c2)c1Cl", "note": "[257(A3)]", "PLASVI 1 d Prot/Foir PRCO": "79*"}]}, {"tested_on": "Plasmopara viticola", "assay": "Fungicidal test, Plasmopara viticola (PLASVI) on vines, PRCO", "format": "in vivo", "conditions": "METHOD 2 (unbanded)", "values": [{"smiles": "CCc1nc2cc(CC(=O)Nc3snc(C)c3Cl)ccc2o1", "note": "[3(A3)]", "PLASVI 1 d Prot/Foir PRCO": 14}, {"smiles": "Cc1nsc(NC(=O)Cc2ccc3oc(C(C)C)nc3c2)c1Cl", "note": "[8(A3)]", "PLASVI 1 d Prot/Foir PRCO": 6}, {"smiles": "CCC(C)c1nc2cc(CC(=O)Nc3snc(C)c3Cl)ccc2o1", "note": "(stereo not shown) [10(A3)]", "PLASVI 1 d Prot/Foir PRCO": 87}]}, {"tested_on": "Uncinula necator", "assay": "Fungicidal test, Uncinula necator (UNCINE) on vines, PRCO", "format": "in vivo", "conditions": "METHOD 2 (unbanded)", "values": [{"smiles": "CCc1nc2cc(CC(=O)Nc3snc(C)c3Cl)ccc2o1", "note": "[3(A3)]", "UNCINE 1 d Prot/Foir PRCO": 27}, {"smiles": "Cc1nsc(NC(=O)Cc2ccc3oc(C(C)C)nc3c2)c1Cl", "note": "[8(A3)]", "UNCINE 1 d Prot/Foir PRCO": 40}, {"smiles": "CCC(C)c1nc2cc(CC(=O)Nc3snc(C)c3Cl)ccc2o1", "note": "(stereo not shown) [10(A3)]", "UNCINE 1 d Prot/Foir PRCO": 96}, {"smiles": "Cc1nsc(NC(=O)Cc2ccc3oc(-c4ccccc4)nc3c2)c1Cl", "note": "[248(A3)]", "UNCINE 1 d Prot/Foir PRCO": 7}, {"smiles": "Cc1nsc(NC(=O)Cc2ccc3oc(-c4ccc(Cl)cc4Cl)nc3c2)c1Cl", "note": "[257(A3)]", "UNCINE 1 d Prot/Foir PRCO": 61}]}, {"tested_on": "Phytophthora infestans lycopersici", "assay": "not given", "format": "in vivo", "conditions": "METHOD 1 (values marked *)", "values": [{"smiles": "Cc1nsc(NC(=O)Cc2ccc3oc(-c4ccccc4)nc3c2)c1Cl", "note": "[248(A3)]", "PHYTIN 1 d Prot/Foir PRCO": "17*"}, {"smiles": "Cc1nsc(NC(=O)Cc2ccc3oc(-c4ccc(Cl)cc4Cl)nc3c2)c1Cl", "note": "[257(A3)]", "PHYTIN 1 d Prot/Foir PRCO": "0*"}]}, {"tested_on": "Phytophthora infestans lycopersici", "assay": "not given", "format": "in vivo", "conditions": "METHOD 2 (unbanded)", "values": [{"smiles": "CCC(C)c1nc2cc(CC(=O)Nc3snc(C)c3Cl)ccc2o1", "note": "(stereo not shown) [10(A3)]", "PHYTIN 1 d Prot/Foir PRCO": 100}]}, {"tested_on": "Venturia inaequalis", "assay": "Fungicidal test, Venturia inaequalis (VENTIN) on apples, PRCO", "format": "in vivo", "conditions": "METHOD 2 (unbanded)", "values": [{"smiles": "CCc1nc2cc(CC(=O)Nc3snc(C)c3Cl)ccc2o1", "note": "[3(A3)]", "VENTIN 1 d Prot/Foir PRCO": 67}, {"smiles": "Cc1nsc(NC(=O)Cc2ccc3oc(C(C)C)nc3c2)c1Cl", "note": "[8(A3)]", "VENTIN 1 d Prot/Foir PRCO": 26}, {"smiles": "CCC(C)c1nc2cc(CC(=O)Nc3snc(C)c3Cl)ccc2o1", "note": "(stereo not shown) [10(A3)]", "VENTIN 1 d Prot/Foir PRCO": 40}, {"smiles": "Cc1nsc(NC(=O)Cc2ccc3oc(-c4ccccc4)nc3c2)c1Cl", "note": "[248(A3)]", "VENTIN 1 d Prot/Foir PRCO": 100}, {"smiles": "Cc1nsc(NC(=O)Cc2ccc3oc(-c4ccc(Cl)cc4Cl)nc3c2)c1Cl", "note": "[257(A3)]", "VENTIN 1 d Prot/Foir PRCO": 0}]}, {"tested_on": "Erysiphe graminis f.sp. tritici", "assay": "Fungicidal test, Erysiphe graminis f.sp. tritici (ERYSGT) on wheat, PRCO", "format": "in vivo", "conditions": "6 hr Prot/Foir; METHOD 1 (values marked *)", "values": [{"smiles": "Cc1nsc(NC(=O)Cc2ccc3oc(-c4ccccc4)nc3c2)c1Cl", "note": "[248(A3)]", "ERYSGT 6 hr Prot/Foir PRCO": "0*"}, {"smiles": "Cc1nsc(NC(=O)Cc2ccc3oc(-c4ccc(Cl)cc4Cl)nc3c2)c1Cl", "note": "[257(A3)]", "ERYSGT 6 hr Prot/Foir PRCO": "0*"}]}, {"tested_on": "Erysiphe graminis f.sp. tritici", "assay": "Fungicidal test, Erysiphe graminis f.sp. tritici (ERYSGT) on wheat, PRCO", "format": "in vivo", "conditions": "1 d Prot/Foir; METHOD 2 (unbanded)", "values": [{"smiles": "CCc1nc2cc(CC(=O)Nc3snc(C)c3Cl)ccc2o1", "note": "[3(A3)]", "ERYSGT 1 d Prot/Foir PRCO": 4}, {"smiles": "Cc1nsc(NC(=O)Cc2ccc3oc(C(C)C)nc3c2)c1Cl", "note": "[8(A3)]", "ERYSGT 1 d Prot/Foir PRCO": 20}, {"smiles": "CCC(C)c1nc2cc(CC(=O)Nc3snc(C)c3Cl)ccc2o1", "note": "(stereo not shown) [10(A3)]", "ERYSGT 1 d Prot/Foir PRCO": 98}]}, {"tested_on": "Septoria nodorum", "assay": "Fungicidal test, Septoria nodorum (LEPTNO) on wheat, PRCO", "format": "in vivo", "conditions": "METHOD 1 (values marked *)", "values": [{"smiles": "Cc1nsc(NC(=O)Cc2ccc3oc(-c4ccccc4)nc3c2)c1Cl", "note": "[248(A3)]", "LEPTNO 1 d Prot/Foir PRCO": "0*"}, {"smiles": "Cc1nsc(NC(=O)Cc2ccc3oc(-c4ccc(Cl)cc4Cl)nc3c2)c1Cl", "note": "[257(A3)]", "LEPTNO 1 d Prot/Foir PRCO": "0*"}]}, {"tested_on": "Septoria nodorum", "assay": "Fungicidal test, Septoria nodorum (LEPTNO) on wheat, PRCO", "format": "in vivo", "conditions": "METHOD 2 (unbanded)", "values": [{"smiles": "CCc1nc2cc(CC(=O)Nc3snc(C)c3Cl)ccc2o1", "note": "[3(A3)]", "LEPTNO 1 d Prot/Foir PRCO": 33}, {"smiles": "Cc1nsc(NC(=O)Cc2ccc3oc(C(C)C)nc3c2)c1Cl", "note": "[8(A3)]", "LEPTNO 1 d Prot/Foir PRCO": 0}, {"smiles": "CCC(C)c1nc2cc(CC(=O)Nc3snc(C)c3Cl)ccc2o1", "note": "(stereo not shown) [10(A3)]", "LEPTNO 1 d Prot/Foir PRCO": 28}]}, {"tested_on": "Puccinia recondita", "assay": "Fungicidal test, Puccinia recondita (PUCCRT) on wheat, PRCO", "format": "in vivo", "conditions": "METHOD 1 (values marked *)", "values": [{"smiles": "Cc1nsc(NC(=O)Cc2ccc3oc(-c4ccccc4)nc3c2)c1Cl", "note": "[248(A3)]", "PUCCRT 1 d Prot/Foir PRCO": "100*"}, {"smiles": "Cc1nsc(NC(=O)Cc2ccc3oc(-c4ccc(Cl)cc4Cl)nc3c2)c1Cl", "note": "[257(A3)]", "PUCCRT 1 d Prot/Foir PRCO": "100*"}]}, {"tested_on": "Puccinia recondita", "assay": "Fungicidal test, Puccinia recondita (PUCCRT) on wheat, PRCO", "format": "in vivo", "conditions": "METHOD 2 (unbanded)", "values": [{"smiles": "CCc1nc2cc(CC(=O)Nc3snc(C)c3Cl)ccc2o1", "note": "[3(A3)]", "PUCCRT 1 d Prot/Foir PRCO": 98}, {"smiles": "Cc1nsc(NC(=O)Cc2ccc3oc(C(C)C)nc3c2)c1Cl", "note": "[8(A3)]", "PUCCRT 1 d Prot/Foir PRCO": 90}, {"smiles": "CCC(C)c1nc2cc(CC(=O)Nc3snc(C)c3Cl)ccc2o1", "note": "(stereo not shown) [10(A3)]", "PUCCRT 1 d Prot/Foir PRCO": 100}]}, {"tested_on": "Pyricularia oryzae", "assay": "not given", "format": "in vivo", "conditions": "METHOD 2 (unbanded)", "values": [{"smiles": "CCC(C)c1nc2cc(CC(=O)Nc3snc(C)c3Cl)ccc2o1", "note": "(stereo not shown) [10(A3)]", "PYRIOR 1 d Prot/Foir PRCO": 77}]}, {"tested_on": "Rhizoctonia solani", "assay": "Fungicidal test, Rhizoctonia solani (RHIZSO) on rice, PRCO", "format": "in vivo", "conditions": "METHOD 2 (unbanded)", "values": [{"smiles": "CCc1nc2cc(CC(=O)Nc3snc(C)c3Cl)ccc2o1", "note": "[3(A3)]", "RHIZSO 1 d Prot/Foir PRCO": 0}, {"smiles": "Cc1nsc(NC(=O)Cc2ccc3oc(C(C)C)nc3c2)c1Cl", "note": "[8(A3)]", "RHIZSO 1 d Prot/Foir PRCO": 0}, {"smiles": "CCC(C)c1nc2cc(CC(=O)Nc3snc(C)c3Cl)ccc2o1", "note": "(stereo not shown) [10(A3)]", "RHIZSO 1 d Prot/Foir PRCO": 0}, {"smiles": "Cc1nsc(NC(=O)Cc2ccc3oc(-c4ccccc4)nc3c2)c1Cl", "note": "[248(A3)]", "RHIZSO 1 d Prot/Foir PRCO": 7}, {"smiles": "Cc1nsc(NC(=O)Cc2ccc3oc(-c4ccc(Cl)cc4Cl)nc3c2)c1Cl", "note": "[257(A3)]", "RHIZSO 1 d Prot/Foir PRCO": 11}]}, {"tested_on": "Musca domestica", "assay": "not given", "conditions": "500 ppm by weight; knockdown assessed 15 minutes after treatment", "values": [{"smiles": "CCc1nc2cc(CC(=O)Nc3snc(C)c3Cl)ccc2o1", "note": "[3(A3)]", "MUSCDO AC = Musca domestica (knockdown), score": "9 (9 indicates 80-100% mortality)"}, {"smiles": "Cc1nsc(NC(=O)Cc2ccc3oc(C(C)C)nc3c2)c1Cl", "note": "[8(A3)]", "MUSCDO AC = Musca domestica (knockdown), score": "9 (9 indicates 80-100% mortality)"}, {"smiles": "CCC(C)c1nc2cc(CC(=O)Nc3snc(C)c3Cl)ccc2o1", "note": "(stereo not shown) [10(A3)]", "MUSCDO AC = Musca domestica (knockdown), score": "5 (5 indicates 40-79% mortality)"}, {"smiles": "Cc1nsc(NC(=O)Cc2ccc3oc(-c4ccccc4)nc3c2)c1Cl", "note": "[248(A3)]", "MUSCDO AC = Musca domestica (knockdown), score": "0 (0 indicates less than 40% mortality)"}, {"smiles": "Cc1nsc(NC(=O)Cc2ccc3oc(-c4ccc(Cl)cc4Cl)nc3c2)c1Cl", "note": "[257(A3)]", "MUSCDO AC = Musca domestica (knockdown), score": "0 (0 indicates less than 40% mortality)"}]}, {"tested_on": "Meloidogyne incognita", "assay": "Nematode test, J2 infective juveniles of Meloidogyne incognita, mortality", "conditions": "12.5 ppm; J2 infective juveniles suspended in solution; mortality after three days", "values": [{"smiles": "CCc1nc2cc(CC(=O)Nc3snc(C)c3Cl)ccc2o1", "note": "[3(A3)]", "MELGIN = Meloidogyne incognita, grading of mortality (score)": "0 (0 indicates less than 40% mortality)"}, {"smiles": "Cc1nsc(NC(=O)Cc2ccc3oc(C(C)C)nc3c2)c1Cl", "note": "[8(A3)]", "MELGIN = Meloidogyne incognita, grading of mortality (score)": "0 (0 indicates less than 40% mortality)"}, {"smiles": "CCC(C)c1nc2cc(CC(=O)Nc3snc(C)c3Cl)ccc2o1", "note": "(stereo not shown) [10(A3)]", "MELGIN = Meloidogyne incognita, grading of mortality (score)": "0 (0 indicates less than 40% mortality)"}, {"smiles": "Cc1nsc(NC(=O)Cc2ccc3oc(-c4ccccc4)nc3c2)c1Cl", "note": "[248(A3)]", "MELGIN = Meloidogyne incognita, grading of mortality (score)": "0 (0 indicates less than 40% mortality)"}, {"smiles": "Cc1nsc(NC(=O)Cc2ccc3oc(-c4ccc(Cl)cc4Cl)nc3c2)c1Cl", "note": "[257(A3)]", "MELGIN = Meloidogyne incognita, grading of mortality (score)": "5 (5 indicates 40-79% mortality)"}]}]}
